# Test results as given in PubChem BioAssay (NCI).
#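 A five-concentration, 48-hour dose response in 96-well plates underlies each endpoint, interpolated linearly between surrounding concentrations. TGI marks complete inhibition of growth.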
# Assays:
# Experiment in all cases: DTP human tumour cell line panel, 48 h
# [1] = tested on: 786-0 renal
# [2] = tested on: A498 renal
# [3] = tested on: A549 NSCLC
# [4] = tested on: ACHN renal
# [5] = tested on: BT-549 breast
# [6] = tested on: CAKI-1 renal
# [7] = tested on: COLO 205 colon
# [8] = tested on: DU-145 prostate
# [9] = tested on: EKVX NSCLC
# [10] = tested on: HCC-2998 colon
# [11] = tested on: HCT-116 colon
# [12] = tested on: HCT-15 colon
# [13] = tested on: HOP-62 NSCLC
# [14] = tested on: HOP-92 NSCLC
# [15] = tested on: HT29 colon
# [16] = tested on: IGROV1 ovarian
# [17] = tested on: K-562 leukemia
# [18] = tested on: KM12 colon
# [19] = tested on: LOX IMVI melanoma
# [20] = tested on: M14 melanoma
# [21] = tested on: MALME-3M melanoma
# [22] = tested on: MCF7 breast
# [23] = tested on: MDA-MB-231 breast
# [24] = tested on: MDA-MB-435
# [25] = tested on: MDA-N
# [26] = tested on: MOLT-4 leukemia
# [27] = tested on: NCI-H226 lung
# [28] = tested on: NCI-H23 lung
# [29] = tested on: NCI-H460 lung
# [30] = tested on: NCI-H522 lung
# [31] = tested on: NCI/ADR-RES ovarian
# [32] = tested on: OVCAR-3 ovarian
# [33] = tested on: OVCAR-4 ovarian
# [34] = tested on: OVCAR-5 ovarian
# [35] = tested on: OVCAR-8 ovarian
# [36] = tested on: PC-3 prostate
# [37] = tested on: RPMI-8226 leukemia
# [38] = tested on: RXF 393 renal
# [39] = tested on: SF-268 CNS
# [40] = tested on: SF-295 CNS
# [41] = tested on: SK-MEL-2 melanoma
# [42] = tested on: SK-MEL-28 melanoma
# [43] = tested on: SK-MEL-5 melanoma
# [44] = tested on: SK-OV-3 ovarian
# [45] = tested on: SN12C renal
# [46] = tested on: SNB-19 CNS
# [47] = tested on: SNB-75 CNS
# [48] = tested on: SR leukemia
# [49] = tested on: SW-620 colon
# [50] = tested on: T-47D breast
# [51] = tested on: TK-10 renal
# [52] = tested on: U251 CNS
# [53] = tested on: UACC-257 melanoma
# [54] = tested on: UACC-62 melanoma
# [55] = tested on: UO-31 renal
# [56] = tested on: CCRF-CEM leukemia
# [57] = tested on: SF-539 CNS
smiles,measurement,setting,value
O=C1Nc2ccc(Cl)cc2C(=O)N2CCC[C@@H]12,TGI,[1],> 100 µM
same,TGI,[2],> 100 µM
same,TGI,[3],> 100 µM
same,TGI,[4],> 100 µM
same,TGI,[5],> 100 µM
same,TGI,[6],> 100 µM
same,TGI,[7],> 100 µM
same,TGI,[8],> 100 µM
same,TGI,[9],> 100 µM
same,TGI,[10],> 100 µM
same,TGI,[11],> 100 µM
same,TGI,[12],> 100 µM
same,TGI,[13],> 100 µM
same,TGI,[14],> 100 µM
same,TGI,[15],> 100 µM
same,TGI,[16],> 100 µM
same,TGI,[17],> 100 µM
same,TGI,[18],> 100 µM
same,TGI,[19],> 100 µM
same,TGI,[20],> 100 µM
same,TGI,[21],> 100 µM
same,TGI,[22],> 100 µM
same,TGI,[23],> 100 µM
same,TGI,[24],> 100 µM
same,TGI,[25],> 100 µM
same,TGI,[26],> 100 µM
same,TGI,[27],> 100 µM
same,TGI,[28],> 100 µM
same,TGI,[29],> 100 µM
same,TGI,[30],> 100 µM
same,TGI,[31],> 100 µM
same,TGI,[32],> 100 µM
same,TGI,[33],> 100 µM
same,TGI,[34],> 100 µM
same,TGI,[35],> 100 µM
same,TGI,[36],> 100 µM
same,TGI,[37],> 100 µM
same,TGI,[38],> 100 µM
same,TGI,[39],> 100 µM
same,TGI,[40],> 100 µM
same,TGI,[41],> 100 µM
same,TGI,[42],> 100 µM
same,TGI,[43],> 100 µM
same,TGI,[44],> 100 µM
same,TGI,[45],> 100 µM
same,TGI,[46],> 100 µM
same,TGI,[47],> 100 µM
same,TGI,[48],> 100 µM
same,TGI,[49],> 100 µM
same,TGI,[50],> 100 µM
same,TGI,[51],> 100 µM
same,TGI,[52],> 100 µM
same,TGI,[53],> 100 µM
same,TGI,[54],> 100 µM
same,TGI,[55],> 100 µM
CCOc1ccccc1N1CSc2nnc(-c3ccccc3)n2C1,TGI,[1],> 100 µM
same,TGI,[2],> 100 µM
same,TGI,[3],> 100 µM
same,TGI,[4],> 100 µM
same,TGI,[5],> 100 µM
same,TGI,[6],> 100 µM
same,TGI,[56],49.9 µM
same,TGI,[7],> 100 µM
same,TGI,[8],> 100 µM
same,TGI,[10],> 100 µM
same,TGI,[11],> 100 µM
same,TGI,[12],> 100 µM
same,TGI,[13],> 100 µM
same,TGI,[14],> 100 µM
same,TGI,[15],> 100 µM
same,TGI,[16],> 100 µM
same,TGI,[17],> 100 µM
same,TGI,[18],> 100 µM
same,TGI,[20],> 100 µM
same,TGI,[21],> 100 µM
same,TGI,[22],> 100 µM
same,TGI,[23],> 100 µM
same,TGI,[24],> 100 µM
same,TGI,[25],> 100 µM
same,TGI,[26],> 100 µM
same,TGI,[27],> 100 µM
same,TGI,[28],> 100 µM
same,TGI,[29],> 100 µM
same,TGI,[30],> 100 µM
same,TGI,[31],> 100 µM
same,TGI,[32],> 100 µM
same,TGI,[33],> 100 µM
same,TGI,[34],> 100 µM
same,TGI,[35],> 100 µM
same,TGI,[36],> 100 µM
same,TGI,[37],> 100 µM
same,TGI,[38],> 100 µM
same,TGI,[39],> 100 µM
same,TGI,[40],> 100 µM
same,TGI,[57],> 100 µM
same,TGI,[41],> 100 µM
same,TGI,[42],> 100 µM
same,TGI,[43],> 100 µM
same,TGI,[44],> 100 µM
same,TGI,[45],> 100 µM
same,TGI,[48],> 100 µM
same,TGI,[49],> 100 µM
same,TGI,[50],> 100 µM
same,TGI,[51],> 100 µM
same,TGI,[52],> 100 µM
same,TGI,[53],> 100 µM
same,TGI,[54],> 100 µM
same,TGI,[55],> 100 µM
